Source: the NIST ThermoML archive (doi:10.1016/j.jct.2012.05.029)
Numbers after ± are expanded uncertainties.

Experiment: molar enthalpy of vaporization or sublimation
Conditions: Liquid, Thermogravimetric Analysis

Structure (SMILES)	molar enthalpy (541.8 K)	also measured
CCCCCCCCCCCCCCCCCC[n+]1ccn(C)c1.O=S(=O)([N-]S(=O)(=O)C(F)(F)F)C(F)(F)F		molar enthalpy (582.5 K): 33.1 ± 0.717 kcal/mol
CCCCCCCCCCCCCCCCn1cc[n+](C)c1.O=S(=O)([N-]S(=O)(=O)C(F)(F)F)C(F)(F)F	32.6 ± 0.717 kcal/mol	
CCCCCCCCCCn1cc[n+](C)c1.O=S(=O)([N-]S(=O)(=O)C(F)(F)F)C(F)(F)F		molar enthalpy (522 K): 29.9 ± 0.717 kcal/mol
CCCCCCCCCCCCCCn1cc[n+](C)c1.O=S(=O)([N-]S(=O)(=O)C(F)(F)F)C(F)(F)F	31.7 ± 0.717 kcal/mol	
CCCCCC[n+]1ccn(C)c1.O=S(=O)([N-]S(=O)(=O)C(F)(F)F)C(F)(F)F	28.2 ± 0.717 kcal/mol	
CCCCCCCCn1cc[n+](C)c1.O=S(=O)([N-]S(=O)(=O)C(F)(F)F)C(F)(F)F	29.3 ± 0.717 kcal/mol	
CCCC[n+]1ccn(C)c1.O=S(=O)([N-]S(=O)(=O)C(F)(F)F)C(F)(F)F	27.1 ± 0.717 kcal/mol	
CCCCCCCCCCCCn1cc[n+](C)c1.O=S(=O)([N-]S(=O)(=O)C(F)(F)F)C(F)(F)F		molar enthalpy (533.5 K): 30.1 ± 0.717 kcal/mol
